Assay results reported in USRE47302E1 (ONYX THERAPEUTICS INC., priority 2013, dated 2019).
Converted amounts (≈) assume the structure as drawn. Read-outs that look alike come from different tables or passages of the source.

How the values were obtained:
[1] = molecular target: T1, proteasome subunit β5 (beta5) (Homo sapiens, UniProt P28074); assay: Proteasome active-site ELISA (ProCISE), beta5, MOLT-4 lysate; format: biochemical; conditions: MOLT4 lysate, human, 1 h continuous treatment, 25° C.
T1 construct: Lysate from the human acute lymphoblastic leukemia cell line, MOLT-4; endogenous in cells; host or cells: MOLT-4
Experimental: (§1) Test compounds were serially diluted in DMSO at 100× concentration, then diluted to 10× in aqueous hypotonic lysis buffer. Lysate from the human acute lymphoblastic leukemia cell line, MOLT-4, was treated for 1 hour at 25° C. with compound at a final 1× concentration. […] Following, lysate was denatured in guanidine hydrochloride, and subunits bound to probe were isolated with streptavidin-conjugated sepharose beads. Individual subunits (e.g., β5, LMP7, LMP2, MECL-1) were probed with subunit-specific primary antibodies, followed by HRP-conjugated secondary antibodies. A chemiluminescent substrate was used to generate signal associated with HRP binding, which was detected on a plate reader. Luminescent signal was normalized to protein content, then, percent activity calculated relative to DMSO-treated controls to generate IC50 curves.

[2] = molecular target: T2, immunoproteasome subunit LMP7 (Homo sapiens, UniProt P28062); assay: Proteasome active-site ELISA (ProCISE), LMP7, MOLT-4 lysate; format: biochemical
T2 construct: Lysate from the human acute lymphoblastic leukemia cell line, MOLT-4; endogenous in cells; host or cells: MOLT-4
Experimental: as §1

Solubility pH 7 = conditions: pH 7, aqueous buffer
[3] = MOLT4 lysate, 1 h continuous treatment, 25° C.

| SMILES | IC50 [1] | IC50 [2, 3] | solubility (Solubility pH 7) | IC50 ([1]; read-out: ProCISE beta5 MOLT4 lysate Hu 1 h CONT: IC50) | IC50 ([2]; read-out: ProCISE LMP7 MOLT4 lysate Hu 1 h CONT: IC50, 1 h continuous treatment, 25° C.) |
| --- | --- | --- | --- | --- | --- |
| COc1ccc(C[C@H](NC(=O)[C@H](C)NC(=O)CN2CCOCC2)C(=O)N[C@@H](CC2CCC2)C(=O)[C@@]2(C)CO2)cc1 [Compound C-1004, (S)-N-((S)-3-cyclobutyl-1-((R)-2-methyloxiran-2-yl)-1-oxopropan-2-yl)-3-(4-methoxyphenyl)-2-((S)-2-(2-morpholinoacetamido)propanamido)propanamide] | 1870 nM | 541 nM | 2500 µg/mL (≈ 4.47 mM) | – | – |
| COc1ccc(C[C@H](NC(=O)[C@H](C)NC(=O)CN2CCOCC2)C(=O)N[C@@H](CC2CC2)C(=O)[C@@]2(C)CO2)cc1 [Compound C-1006, (S)-N-((S)-3-cyclopropyl-1-((R)-2-methyloxiran-2-yl)-1-oxopropan-2-yl)-3-(4-methoxyphenyl)-2-((S)-2-(2-morpholinoacetamido)propanamido)propanamide] | 5240 nM | 5150 nM | 2590 µg/mL (≈ 4.75 mM) | – | – |
| COc1ccc(C[C@H](NC(=O)[C@H](C)NC(=O)CN2CCOCC2)C(=O)N[C@@H](C[C@H]2CCCO2)C(=O)[C@@]2(C)CO2)cc1 [Compound C-1017, (S)-3-(4-methoxyphenyl)-N-((S)-1-((R)-2-methyloxhan-2-yl)-1-oxo-3-((R)-tetrahydrofuran-2-yl)propan-2-yl)-2-((S)-2-(2-morpholinoacetamido)propanamido)propanamide] | 21700 nM | 1090 nM | 11700 µg/mL (≈ 20.4 mM) | – | – |
| COc1ccc(C[C@H](NC(=O)[C@H](C)NC(=O)CN2CCOCC2)C(=O)N[C@@H](CC2=CCOCC2)C(=O)[C@@]2(C)CO2)cc1 [Compound C-1020, (S)-N-((S)-3-(3,6-dihydro-2H-pyran-4-yl)-1-((R)-2-methyloxiran-2-yl)-1-oxopropan-2-yl)-3-(4-methoxyphenyl)-2-((S)-2-(2-morpholinoacetamido)propanamido)propanamide] | 45000 nM | 1160 nM | 6440 µg/mL (≈ 11 mM) | – | – |
| COc1ccc(C[C@H](NC(=O)[C@H](C)NC(=O)CN2CCOCC2)C(=O)N[C@@H](CC2=CCCC2)C(=O)[C@H]2CO2)cc1 [Compound C-1038, (S)-N-((S)-3-(cyclopent-1-en-1-yl)-1-((R)-oxiran-2-yl)-1-oxopropan-2-yl)-3-(4-methoxyphenyl)-2-((S)-2-(2-morpholinoacetamido)propanamido)propanamide] | 289 nM | 9.07 nM | 230 µg/mL (≈ 0.414 mM) | – | – |
| C[C@H](NC(=O)CN1CCOCC1)C(=O)N[C@@H](Cc1ccc2c(c1)OCO2)C(=O)N[C@@H](CC1CCCC1)C(=O)[C@H]1CO1 [Compound C-1060, (S)-3-(benzo[d][1,3]dioxol-5-yl)-N-((S)-3-cyclopentyl-1-((R)-oxiran-2-yl)-1-oxopropan-2-yl)-2-((S)-2-(2-morpholinoacetamido)propanamido)propanamide] | 423 nM | 12.4 nM | 1380 µg/mL (≈ 2.4 mM) | – | – |
| COc1ccc([C@@H](O)[C@H](NC(=O)[C@@H](C)NC(=O)[C@H]2CC[C@H](O)CC2)C(=O)N[C@@H](CC2=CCCC2)C(=O)[C@@]2(C)CO2)cc1 [Compound C-1080, (1r,4R)-N-((R)-1-(((2S,3R)-1-(((S)-3-(cyclopent-1-en-1-yl)-1-((R)-2-methyloxiran-2-yl)-1-oxopropan-2-yl)amino)-3-hydroxy-3-(4-methoxyphenyl)-1-oxopropan-2-yl)amino)-1-oxopropan-2-yl)-4-hydroxycyclohexanecarboxamide] | 1180 nM | 25.2 nM | – | – | – |
| COc1ccc(C[C@H](NC(=O)[C@@H](COCc2ccccc2)NC(=O)CN2CCOCC2)C(=O)N[C@@H](Cc2ccccc2)C(=O)[C@@]2(C)CO2)cc1 [Compound C-1156] | – | – | – | 175 nM | 50.8 nM |
